Converted amounts (≈) assume the structure as drawn. “Also recorded” adds a separate entry of the source. Read-outs that look alike come from different tables or passages of the source.
Key:
[1] = Cytotoxicity in human foreskin fibroblast cells; format: cell-based
Protocol: Human foreskin fibroblast (HFF) cells obtained from newborns were prepared and suspended in minimum essential medium (MEM) and supplemented with 10% fetal bovine serum (FBS). Freshly processed cells were incubated for 24 hours at 37° C. in well tissue culture plates in a CO2 incubator (E. R. Kern, J. Infect. Dis., 128:290 (1973)). Assays for cytotoxicity and varicella zoster virus replication were carried out in these culture wells following reported procedures (see, for example, R. J. Ryback and E. R. Kern et al, Antimicrobial Agents and Chemotherapy, 44:1506 (2000); Y. L. Qiu et al, J. Med. Chem., 41: 10 (1998); and Y. L. Qiu et al, J. Med. Chem., 41: 5257 (1998)). Drug concentrations were diluted six times from 100 μg/ml down to 0.03 μg/ml in MEM/FBS solution. A selective index of 10 is considered significant.

varicella zoster virus [2] = assay: Shingles episode in a person; conditions: oral 400 mg 2×/day
Varicella Zoster Virus [3] = assay: Varicella zoster virus replication in cultures of human foreskin fibroblast cells; format: cell-based; conditions: for EC50: Human alphaherpesvirus 3, read-out: EC50 effective concentration required to inhibit viral replication by 50%; for EC50 / EC90: VZV in HFF cells; for EC90: Human alphaherpesvirus 3, read-out: EC90 effective concentration required to inhibit viral replication by 90%; for replication of varicella zoster virus in human cell cultures: statement in words
Protocol: (§1) Human foreskin fibroblast (HFF) cells obtained from newborns were prepared and suspended in minimum essential medium (MEM) and supplemented with 10% fetal bovine serum (FBS). […] Drug concentrations were diluted six times from 100 μg/ml down to 0.03 μg/ml in MEM/FBS solution. A selective index of 10 is considered significant.

herpes and other viruses = conditions: cited from earlier work
Varicella zoster virus [4] = assay: Varicella zoster virus replication in cultures of human foreskin fibroblast cells; format: cell-based; conditions: human; VZV in HFF cells; read-out: SI selective index of CC50/EC50
Protocol: as §1

herpes simplex virus-1 = conditions: rabbit kidney cell cultures; cited from earlier work
[5] = Topical relief of muscle and joint pain in persons; format: in vivo, human; conditions: ibuprofen 5%, ketoprofen 3% (2-5%) in jojoba alcohol with 1% alpha-d-tocopherol, several drops
Protocol: Some persons using these medications experience gastrointestinal side effects.
(§2) The oil was tested on several persons for relief of minor muscle and joint pains.
(§3) The oil was tested topically on several persons for relief of minor muscle and joint pains.

herpes labialis (HSV-1) = conditions: 10% suspended in aqueous system with non-ionic surfactant and carrier; cited from earlier work
[6] = tested on: simian immunodeficiency virus (SIV); conditions: 12% cream, intravaginal application before exposure, six monkeys tested; cited from earlier work
[7] = ibuprofen 5%, ketoprofen 3%, lactic acid 5%, testosterone 1% in jojoba alcohol; malic acid 0.8%, citric acid 0.5% lotion; Viracol A Plus one drop
Protocol: Testosterone is a primary male hormone produced in the testes with effects on muscles, bones and sexual function. Testosterone replacement therapy for men with a deficiency, sometimes referred to as hypoganadism, is currently available in topical patches. […] This transdermal delivery technology can also be applied to corresponding estrogenic steroids such as estradiol for women.
as §2, §3
Malic Acid also known as hydroxysuccinic acid, occurs naturally in apples and is sometimes referred to as apple acid. It is used as a general purpose acidulent in food products.
For the next 8 days […] spread 1-2 drops twice each day on the 2.5 inch diameter outbreak of small blisters on […] arm, and 4-6 drops twice each day on the blisters at […] waist.

Nc1nc2c(ncn2COCCO)c(=O)[nH]1 [Acyclovir, reference compound]
CC50 ([1]; stationary HFF cells): > 100 µg/mL | side effects (varicella zoster virus [2]): diarrhea and headache | change in shingles (varicella zoster virus [2]; after several days): no change | EC50 (Varicella Zoster Virus [3]): 0.04 µg/mL (≈ 0.178 µM) | EC90 (Varicella Zoster Virus [3]): 0.09 µg/mL (≈ 0.4 µM)

O=C(O)CC(O)(CC(=O)O)C(=O)O [Citric Acid]
viral replication inhibition activity in cell cultures (herpes and other viruses): viral replication inhibition activity

O=C(O)/C=C/C(=O)O [Fumaric acid, trans 2-butenedioic acid]
CC50 [1]: > 100 µg/mL | viral replication inhibition activity in cell cultures (herpes and other viruses): viral replication inhibition | selectivity ratio (Varicella zoster virus [4]): > 666 | EC50 (Varicella Zoster Virus [3]): 0.15 µg/mL (≈ 1.29 µM) | EC90 (Varicella Zoster Virus [3]): 0.6 µg/mL (≈ 5.17 µM) | replication of varicella zoster virus in human cell cultures (Varicella Zoster Virus [3]): inhibit replication | herpes simplex virus-1 replication (herpes simplex virus-1): inhibitors

O=C(O)CO [Glycolic Acid]
viral replication inhibition activity in cell cultures (herpes and other viruses): viral replication inhibition activity

CC(C)Cc1ccc(C(C)C(=O)O)cc1 (stereo not drawn) [Ibuprofen, alpha-methyl-4(2-methylpropyl)benzeneacetic acid]
pain relief on topical application [5]: successfully relieved pain; also recorded: relieving pain

CC(C(=O)O)c1cccc(C(=O)c2ccccc2)c1 (stereo not drawn) [Ketoprofen, 3-benzoyl-alpha-methylbenzeneacetic acid]
pain relief on topical application [5]: relieving pain | pain relief on topical application ([5]; listed as ketoprofen): successfully relieved pain

CC(O)C(=O)O (stereo not drawn) [Lactic Acid]
viral replication inhibition activity in cell cultures (herpes and other viruses): viral replication inhibition activity

O=C(O)CC(O)C(=O)O (stereo not drawn) [Malic Acid, hydroxysuccinic acid]
viral replication inhibition activity in cell cultures (herpes and other viruses): viral replication inhibition activity

O=C(O)CC(=O)O [Malonic acid, propanedioic acid]
CC50 [1]: > 100 µg/mL | selectivity ratio (Varicella zoster virus [4]): > 3330 | EC50 (Varicella Zoster Virus [3]): < 0.03 µg/mL | EC90 (Varicella Zoster Virus [3]): < 0.03 µg/mL | replication of varicella zoster virus in human cell cultures (Varicella Zoster Virus [3]): inhibit replication | herpes simplex virus-1 replication (herpes simplex virus-1): inhibitors

CC(=O)C(=O)O [Pyruvic acid, Pyruvic Acid]
viral replication inhibition activity in cell cultures (herpes and other viruses): viral replication inhibition activity

O=C(O)CCC(=O)O [Succinic acid, Succinic Acid]
viral replication inhibition activity in cell cultures (herpes and other viruses): viral replication inhibition activity

CCCCCCCCCCCCCCCCCCCCCCO [n-docosanol, n-Docosanol]
mean healing time of lesions (herpes labialis (HSV-1)): shortened | monkeys in which transmission was prevented [6]: five

C[C@]12CC[C@H]3[C@@H](CCC4=CC(=O)CC[C@@]43C)[C@@H]1CC[C@@H]2O [testosterone, Testosterone]
absorption into human skin, residue, irritation [7]: leaves no residue

Reference: US20050203187A1, “Formulations useful for the treatment of varicella zoster virus infections and methods for the use thereof” (priority 1998, published 2005)
